In ChEMBL document CHEMBL1148718, “Structure-activity relationship study on N-(1,2,3,4-tetrahydronaphthalen-1-yl)-4-aryl-1-piperazinehexanamides, a class of 5-HT7 receptor agents. 2” (J Med Chem, 2007):

How the values were obtained:
D(2) dopamine receptor [1] = target: T1, D(2) dopamine receptor (Homo sapiens, UniProt P14416); test: Displacement of [3H]spiroperidol from human recombinant Dopamine D2 long receptor
D(2) dopamine receptor [2] = target: T1, D(2) dopamine receptor; test: Displacement of [3H]spiroperidol from human recombinant Dopamine D2 long receptor […]
[3] = target: 5-hydroxytryptamine receptor 2A (Rattus norvegicus) (UniProt P14842); test: Displacement of [3H]ketanserin from 5HT2A receptor in Sprague-Dawley cortex membrane at >4000 uM; type: cell membranes
[4] = target: T2, 5-hydroxytryptamine receptor 1A (Homo sapiens, UniProt P08908); test: Displacement of [3H]8-OH-DPAT from human recombinant 5HT1A receptor expressed in HEK293 cells; type: cell-based
T2 sequence (P08908 whole entry): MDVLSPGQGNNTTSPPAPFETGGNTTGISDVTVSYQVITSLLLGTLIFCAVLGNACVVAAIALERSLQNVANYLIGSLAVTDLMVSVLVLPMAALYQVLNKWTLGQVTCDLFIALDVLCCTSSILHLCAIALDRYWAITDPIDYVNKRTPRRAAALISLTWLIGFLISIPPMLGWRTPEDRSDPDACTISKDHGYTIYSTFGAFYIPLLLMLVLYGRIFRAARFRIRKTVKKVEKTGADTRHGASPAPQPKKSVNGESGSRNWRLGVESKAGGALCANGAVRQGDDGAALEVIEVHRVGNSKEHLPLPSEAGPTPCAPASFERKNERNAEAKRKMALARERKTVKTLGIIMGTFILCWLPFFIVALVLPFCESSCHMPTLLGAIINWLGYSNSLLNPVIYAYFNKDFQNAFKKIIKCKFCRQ

[5] = target: 5-hydroxytryptamine receptor 7 (Rattus norvegicus, UniProt P32305); test: Displacement of [3H]LSD from rat recombinant 5HT7 receptor expressed in HEK293 cells; type: cell-based
[6] = target: 5-hydroxytryptamine receptor 2A (Rattus norvegicus, UniProt P14842); test: Displacement of [3H]ketanserin from 5HT2A receptor in Sprague-Dawley cortex membrane; type: cell membranes
[7] = target: T3, 5-hydroxytryptamine receptor 7 (Cavia porcellus, UniProt P50407); test: (§1) Agonist activity at 5HT7 receptor in guinea pig ileum assessed as relaxation of substance P-induced contraction; type: functional, tissue-based
[8] = target: 5-hydroxytryptamine receptor 7 (Cavia porcellus) (UniProt P50407); test: as §1; type: functional, tissue-based
[9] = target: T3, 5-hydroxytryptamine receptor 7; test: Antagonist activity at 5HT7 receptor in guinea pig ileum assessed as effect on substance P-induced contraction; type: functional, tissue-based; settings: read-out: pA2 (converted)
[10] = Selectivity for rat 5HT7 over human 5HT1A
[11] = target: T3, 5-hydroxytryptamine receptor 7; test: Antagonist activity at 5HT7 receptor in guinea pig ileum assessed as effect on 6-(4-(2-nitrophenyl)piperazin-1-yl)-N-(1,2,3,4-tetrahydronaphthalen-1-yl)hexanamide mediated relaxation of substance P-induced contraction; type: functional, tissue-based; settings: read-out: pA2 (converted)
[12] = target: T3, 5-hydroxytryptamine receptor 7; test: Antagonist activity at 5HT7 receptor in guinea pig ileum assessed as effect on 4-(2-dimethylaminophenyl)-N-(1,2,3,4-tetrahydronaphthalen-1-yl)-1-piperazine hexanamide mediated relaxation of substance P-induced contraction; type: functional, tissue-based; settings: read-out: pA2 (converted)
[13] = target: T3, 5-hydroxytryptamine receptor 7; test: Antagonist activity at 5HT7 receptor in guinea pig ileum assessed as effect on 6-(4-(2-chlorophenyl)piperazine-1-yl)-N-(1,2,3,4-tetrahydronaphthalen-1-yl)hexanamide mediated relaxation of substance P-induced contraction; type: functional, tissue-based; settings: read-out: pA2 (converted)
[14] = target: T3, 5-hydroxytryptamine receptor 7; test: Antagonist activity at 5HT7 receptor in guinea pig ileum assessed as effect on 3-(2-aminoethyl)-1H-indole-5-carboxamide mediated relaxation of substance P-induced contraction; type: functional, tissue-based; settings: read-out: pA2 (converted)
[15] = target: T3, 5-hydroxytryptamine receptor 7; test: Antagonist activity at 5HT7 receptor in guinea pig ileum assessed as effect on 6-(4-phenylpiperazin-1-yl)-N-(1,2,3,4-tetrahydronaphthalen-1-yl)hexanamide mediated relaxation of substance P-induced contraction; type: functional, tissue-based; settings: read-out: pA2 (converted)
[16] = target: T3, 5-hydroxytryptamine receptor 7; test: Antagonist activity at 5HT7 receptor in guinea pig ileum assessed as effect on 4-(2-diphenyl)-N-(1,2,3,4-tetrahydronaphthalen-1-yl)-1-piperazine hexanamide mediated relaxation of substance P-induced contraction; type: functional, tissue-based; settings: read-out: pA2 (converted)
[17] = target: T3, 5-hydroxytryptamine receptor 7; test: Antagonist activity at 5HT7 receptor in guinea pig ileum assessed as effect on 4-[2-(1-methylethyl)phenyl]-N-(1,2,3,4-tetrahydronaphthalen-1-yl)-1-piperazine hexanamide mediated relaxation of substance P-induced contraction; type: functional, tissue-based; settings: read-out: pA2 (converted)
[18] = Ratio of Ki for human Dopamine D2L receptor to Ki for rat 5HT7 receptor

Chain of 5-hydroxytryptamine receptor 7 (Rattus norvegicus, UniProt P32305) (P32305 whole entry): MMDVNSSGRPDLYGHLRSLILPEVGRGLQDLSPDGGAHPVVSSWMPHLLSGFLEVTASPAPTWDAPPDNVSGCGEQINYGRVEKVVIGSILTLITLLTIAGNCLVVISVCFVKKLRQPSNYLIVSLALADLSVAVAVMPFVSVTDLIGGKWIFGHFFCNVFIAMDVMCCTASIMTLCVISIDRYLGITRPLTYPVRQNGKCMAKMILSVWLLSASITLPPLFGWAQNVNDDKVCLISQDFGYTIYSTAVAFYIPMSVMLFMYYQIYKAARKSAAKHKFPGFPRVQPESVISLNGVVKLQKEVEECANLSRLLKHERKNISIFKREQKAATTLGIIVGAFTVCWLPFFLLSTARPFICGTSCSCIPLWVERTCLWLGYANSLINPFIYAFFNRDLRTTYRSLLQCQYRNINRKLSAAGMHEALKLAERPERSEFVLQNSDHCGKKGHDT
T3 sequence (P50407 whole entry): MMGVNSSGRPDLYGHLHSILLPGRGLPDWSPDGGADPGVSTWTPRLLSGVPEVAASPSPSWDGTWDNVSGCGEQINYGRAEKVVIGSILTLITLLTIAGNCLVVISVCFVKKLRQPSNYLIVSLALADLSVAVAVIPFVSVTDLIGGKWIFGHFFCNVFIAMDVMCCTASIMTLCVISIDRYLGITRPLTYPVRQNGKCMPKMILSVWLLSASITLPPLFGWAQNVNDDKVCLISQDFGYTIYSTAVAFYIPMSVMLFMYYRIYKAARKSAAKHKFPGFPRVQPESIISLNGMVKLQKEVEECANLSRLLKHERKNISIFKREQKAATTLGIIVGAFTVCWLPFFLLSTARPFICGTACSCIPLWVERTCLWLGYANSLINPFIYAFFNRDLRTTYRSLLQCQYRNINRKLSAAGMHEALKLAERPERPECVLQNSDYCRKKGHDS
Chain of 5-hydroxytryptamine receptor 7 (Cavia porcellus) (P50407 whole entry): as above
T1 sequence (P14416 whole entry): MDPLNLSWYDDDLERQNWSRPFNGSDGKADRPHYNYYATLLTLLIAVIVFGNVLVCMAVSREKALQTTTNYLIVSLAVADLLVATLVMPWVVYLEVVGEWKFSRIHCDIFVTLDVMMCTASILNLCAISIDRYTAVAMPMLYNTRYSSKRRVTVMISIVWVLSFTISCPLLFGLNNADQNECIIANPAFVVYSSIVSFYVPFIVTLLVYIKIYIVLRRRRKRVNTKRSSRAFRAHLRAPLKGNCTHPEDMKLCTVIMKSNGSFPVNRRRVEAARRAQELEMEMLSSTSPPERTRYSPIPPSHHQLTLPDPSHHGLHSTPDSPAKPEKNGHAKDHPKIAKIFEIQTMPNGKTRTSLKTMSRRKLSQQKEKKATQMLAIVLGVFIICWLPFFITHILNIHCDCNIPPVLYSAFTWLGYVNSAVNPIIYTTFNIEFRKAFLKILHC
Chain of 5-hydroxytryptamine receptor 2A (P14842 whole entry): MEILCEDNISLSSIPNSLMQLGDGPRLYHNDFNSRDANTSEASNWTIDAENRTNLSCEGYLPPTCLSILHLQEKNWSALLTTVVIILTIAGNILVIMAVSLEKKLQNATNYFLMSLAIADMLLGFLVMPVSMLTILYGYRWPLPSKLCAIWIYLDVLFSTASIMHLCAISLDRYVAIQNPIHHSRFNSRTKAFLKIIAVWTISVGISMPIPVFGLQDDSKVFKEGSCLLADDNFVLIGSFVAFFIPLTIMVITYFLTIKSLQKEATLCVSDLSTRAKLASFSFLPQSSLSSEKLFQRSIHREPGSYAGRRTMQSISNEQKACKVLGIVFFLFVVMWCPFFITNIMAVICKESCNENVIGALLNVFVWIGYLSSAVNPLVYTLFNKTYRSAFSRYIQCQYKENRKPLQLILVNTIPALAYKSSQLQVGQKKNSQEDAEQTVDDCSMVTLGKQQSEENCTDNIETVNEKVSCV
Chain of 5-hydroxytryptamine receptor 2A (Rattus norvegicus) (P14842 whole entry): as above

Compound	Ki (D(2) dopamine receptor [1]) [nM]	Ki [4] [nM]	Ki [5] [nM]	Ki [6] [nM]	further results
Cc1ccccc1N1CCN(CCCCCC(=O)NC2CCCc3ccccc32)CC1 (stereo not given)	143	–	–	–	–
COc1ccccc1N1CCN(CCCCCC(=O)NC2CCCc3ccccc32)CC1 (stereo not given)	26.4	–	–	–	–
NC(=O)c1ccccc1N1CCN(CCCCCC(=O)NC2CCCc3ccccc32)CC1 (stereo not given)	> 1000	–	–	–	inhibition (D(2) dopamine receptor [2]): 32%; inhibition [3]: 9%
CS(=O)(=O)c1ccccc1N1CCN(CCCCCC(=O)NC2CCCc3ccccc32)CC1 (stereo not given)	> 1000	–	–	–	inhibition (D(2) dopamine receptor [2]): 32%; inhibition [3]: 38%
CSc1ccccc1N1CCN(CCCCCC(=O)NC2CCCc3ccccc32)CC1 (stereo not given)	7.3	–	–	–	–
CCCc1ccccc1N1CCN(CCCCCC(=O)NC2CCCc3ccccc32)CC1 (stereo not given)	123	168	49.6	3190	–
O=C(CCCCCN1CCN(c2ccccc2F)CC1)NC1CCCc2ccccc21 (stereo not given)	292	29.2	131	194	–
CC(C)(C)c1ccccc1N1CCN(CCCCCC(=O)NC2CCCc3ccccc32)CC1 (stereo not given)	> 1000	1200	538	–	inhibition (D(2) dopamine receptor [2]): 38%
CC(=O)Nc1ccccc1N1CCN(CCCCCC(=O)NC2CCCc3ccccc32)CC1 (stereo not given)	> 1000	2500	338	3520	inhibition (D(2) dopamine receptor [2]): 35%
NCCc1c[nH]c2ccc(C(N)=O)cc12	–	–	0.5	–	EC50 [7]: 630 nM; %max [8]: 100%
O=C(CCCCCN1CCN(c2ccccc2O)CC1)NC1CCCc2ccccc21 (stereo not given)	987	–	–	–	–
Nc1ccccc1N1CCN(CCCCCC(=O)NC2CCCc3ccccc32)CC1 (stereo not given)	–	415	8180	–	–
O=C(CCCCCN1CCN(c2ccccc2Cl)CC1)NC1CCCc2ccccc21 (stereo not given)	51	–	–	–	EC50 [7]: 17000 nM; %max [8]: 13%
CCCCc1ccccc1N1CCN(CCCCCC(=O)NC2CCCc3ccccc32)CC1 (stereo not given)	60	60	2810	–	–
CNc1ccccc1N1CCN(CCCCCC(=O)NC2CCCc3ccccc32)CC1 (stereo not given)	107	133	25.4	1590	%max [8]: 0%; Kb [9]: 20 nM
CC(C)c1ccccc1N1CCN(CCCCCC(=O)NC2CCCc3ccccc32)CC1 (stereo not given)	15	167	1.1	4820	EC50 [7]: 900 nM; %max [8]: 83%; Selectivity ratio [10]: > 100
O=C(CCCCCN1CCN(c2ccccc2)CC1)NC1CCCc2ccccc21 (stereo not given)	1000	–	–	–	EC50 [7]: 8000 nM; %max [8]: 40%
O=C(CCCCCN1CCN(c2ccccc2[N+](=O)[O-])CC1)NC1CCCc2ccccc21 (stereo not given)	681	–	–	–	EC50 [7]: 10000 nM; %max [8]: 24%
CN(C)c1ccccc1N1CCN(CCCCCC(=O)NC2CCCc3ccccc32)CC1 (stereo not given)	32	112	0.9	559	EC50 [7]: 1170 nM; %max [8]: 100%; Selectivity ratio [10]: > 100
CC(=O)c1ccccc1N1CCN(CCCCCC(=O)NC2CCCc3ccccc32)CC1 (stereo not given)	68	–	–	–	–
CCc1ccccc1N1CCN(CCCCCC(=O)NC2CCCc3ccccc32)CC1 (stereo not given)	173	79.2	7.1	3370	–
CS(=O)(=O)Nc1ccccc1N1CCN(CCCCCC(=O)NC2CCCc3ccccc32)CC1 (stereo not given)	> 1000	–	4250	–	inhibition (D(2) dopamine receptor [2]): 28%
N#Cc1ccccc1N1CCN(CCCCCC(=O)NC2CCCc3ccccc32)CC1 (stereo not given)	265	–	–	–	–
O=C(CCCCCN1CCN(c2cccc[n+]2[O-])CC1)NC1CCCc2ccccc21 (stereo not given)	–	194	8030	–	–
CC1CCN(CC[C@H]2CCCN2S(=O)(=O)c2cccc(O)c2)CC1	–	–	–	–	Kb [11]: 6.31 nM; Kb [12]: 12.6 nM; Kb [13]: 3.98 nM; Kb [14]: 33.1 nM; Kb [15]: 7.94 nM; Kb [16]: 14.5 nM; Kb [17]: 8.91 nM
O=C(CCCCCN1CCN(c2ccccc2-c2ccccc2)CC1)NC1CCCc2ccccc21 (stereo not given)	224	60.9	0.13	1460	Ratio Ki [18]: 1720; EC50 [7]: 1770 nM; %max [8]: 74%; Selectivity ratio [10]: > 100
O=C(CCCCCN1CCN(c2ccccn2)CC1)NC1CCCc2ccccc21 (stereo not given)	> 1000	36.4	278	535	inhibition (D(2) dopamine receptor [2]): 15%
